Assay results taken from patent US20150111750A1, “Substituted N-(tetrazol-5-yl)- and N-(triazol-5-yl)hetarylcarboxamide compounds and their use as herbicides” (BASF SE, priority 2012, published 2015).

Columns and labels:
Amaranthus retroflexus = assay: Greenhouse post-emergence treatment of Amaranthus retroflexus; format: in vivo; details: application rate 1000 g/ha, scale 0 (no damage) to 100 (complete destruction)
Text: (§1) The seeds of the test plants were sown separately for each species. For the post-emergence treatment, the test plants were first grown to a height of 3 to 15 cm, depending on the plant habit, and only then treated with the active ingredients which had been suspended or emulsified in water. For this purpose, the test plants were either sown directly and grown in the same containers, or they were first grown separately as seedlings and transplanted into the test containers a few days prior to treatment. Depending on the species, the plants were kept at 10-25° C. or 20-35° C. The test period extended over 2 to 4 weeks. During this time, the plants were tended, and their response to the individual treatments was evaluated. Evaluation was carried out using a scale from 0 to 100. 100 means no emergence of the plants, or complete destruction of at least the aerial moieties, and 0 means no damage, or normal course of growth. A good herbicidal activity is given at values of at least 70 and a very good herbicidal activity is given at values of at least 85. The plants used in the greenhouse experiments belonged to the following species: [table]

Echinochloa crus-galli = assay: Greenhouse post-emergence treatment of Echinochloa crus-galli; format: in vivo; details: application rate 1000 g/ha, scale 0 (no damage) to 100 (complete destruction)
Text: as §1

Cn1ncnc1NC(=O)c1cnc(Cl)cc1Cl [I.5-1, 4,6-dichloro-N-(2-methyl-1,2,4-triazol-3-yl)pyridine-3-carboxamide]
damage [%] (Amaranthus retroflexus): 65%
damage [%] (Echinochloa crus-galli): 30%
